Where “and” joins values, the source holds several entries; their conditions need not be identical. Equal values may be shown once.
Tests used:
normotensive rats = assay: Blood pressure measurement in normotensive anesthetized rats; assay type: in vivo, Wistar rats; details: for DBP Mean / SBP Mean: group mean; for DBP / SBP: individual rat
Experimental: Male Wistar normotensive rats were anesthetized with thiopental (50–75 mg/kg, i.p.). The right carotid artery was cannulated with a polyethylene tube filled with heparin in saline to facilitate pressure measurement using the Datamax apparatus (Columbus Instruments, Columbus, Ohio, USA). The studied compounds were administered after a 15-min stabilization period.

[1] = Liver, kidney and heart weight after repeated administration; assay type: in vivo, Swiss albino mice; details: mice, AZ-853 0.625 mg/kg, AZ-861 1.25 mg/kg
Experimental: (§1) The Swiss albino mice were used in the experiment. AZ-853 and AZ-861 were injected once daily for 16 consecutive days. On the 1st and 15th day the administration of the compounds, 18-h spontaneous animal activity was registered (see below). FST, as described earlier, was performed on the 14th day just before the next treatment. To ensure that the effects observed in FST are not the result of increased motility of animals, on the 13th day, just before the next administration, the locomotor activity was measured as described earlier, from 2 to 6 min after test start, i.e. in the period identical to the duration of FST. Blood and organ collection was performed on the 17th day at 24 h after the last dose and fasting.
The body weight was measured daily immediately prior to administration of the drugs. On the 17th day, the blood was collected from the Swiss albino mice sacrificed by decapitation 20 min after i.p. administration of heparin (2500 units/mouse) and then centrifuged at 600 × g (15 min, 4°C) to separate plasma. The liver, heart, and kidney were also collected and weighed.

[2] = Plasma ALAT and γ-GTP activity after repeated administration; assay type: in vivo, Swiss albino mice; details: mice, AZ-853 0.625, AZ-861 1.25 mg/kg b.w./day
Experimental: as §1
Blood samples were collected from the Swiss albino mice 24 h after the last administration of the tested compounds or vehicle. To determine glucose, cholesterol and triglyceride levels in the plasma, standard enzymatic spectrophotometric tests (Biomaxima S.A. Lublin, Poland) were used. In the presence of appropriate enzyme, the substrate was converted to a colored compound. Absorbance was measured at a wavelength of 500 nm. To determine alanine aminotransferase (ALAT) or γ-glutamyl transpeptidase (γ-GTP) activities in the plasma, the standard enzymatic spectrophotometric test (Biomaxima S.A.) was used. Absorbance was measured at 340 nm (ALAT) or 405 nm (γ-GTP).

mice = assay: Spontaneous activity monitoring (RFID TraffiCage, 18 h); assay type: in vivo, Swiss albino mice; details: for Mean counts, spontaneous activity: 1.25 mg/kg
Experimental: as §1
The spontaneous activity of the mice was measured on the 1st and 15th day of the treatment with a special, innovative radiofrequency identification system (RFID-system)—TraffiCage (TSE-Systems, Germany). The test was conducted according to the method described in the literature. The animals had the transmitter (RFID) subcutaneously implanted, which tracked the time they spent in different areas of the cage. The data obtained were then grouped in a special computer program.

[3] = target: serotonergic 5-HT7 receptor (5-HT7R); set-up: method as in PMID 27353547; details: ref [8]; cited from earlier work
5-HT1AR = test system: 5-HT1AR; set-up: method as in PMID 27353547; details: CHO-K1 cells, Ca2+ mobilisation; ref [8]; read-out: Kb, 5-HT1AR antagonist; cited from earlier work
[4] = 18-h monitoring, AZ-853 0.625, AZ-861 1.25 mg/kg b.w./day

In the case of `Cn1c(=O)c2c(nc3n(CCCCN4CCN(c5cccc(C(F)(F)F)c5)CC4)ccn23)n(C)c1=O` [AZ-861, 1,3-dimethyl-8-(4-(4-(3-(trifluoromethyl)phenyl)piperazin-1-yl)butyl)-1H-imidazo[2,1-f]purine-2,4(3H,8H)-dione], the “effect on arterial pressure” value (normotensive rats; 10 mg/kg) is reported as “did not significantly affect the arterial pressure”, the “DBP Mean” value (normotensive rats; time 0 min) is reported as 86.8 mmHg and the “SBP Mean” value (normotensive rats; time 0 min) is reported as 124.2 mmHg. For the same compound, the DBP (normotensive rats; time 0 min) was 74 mmHg and 91 mmHg and 79 mmHg and 94 mmHg and 89 mmHg, the SBP (normotensive rats; time 0 min) was 113 mmHg and 124 mmHg and 105 mmHg and 134 mmHg and 135 mmHg and the “DBP Mean” value (normotensive rats; time 5 min) was 87.2 mmHg. For the same compound, the “SBP Mean” value (normotensive rats; time 5 min) was 122.2 mmHg, the DBP (normotensive rats; time 5 min) was 91 mmHg and 76 mmHg and 84 mmHg and 93 mmHg and 98 mmHg and 81 mmHg and the SBP (normotensive rats; time 5 min) was 122 mmHg and 101 mmHg and 119 mmHg and 139 mmHg and 138 mmHg and 114 mmHg. For the same compound, the “DBP Mean” value (normotensive rats; time 10 min) was 86.8 mmHg, the “SBP Mean” value (normotensive rats; time 10 min) was 122.3 mmHg and the DBP (normotensive rats; time 10 min) was 90 mmHg and 76 mmHg and 87 mmHg and 98 mmHg and 80 mmHg. For the same compound, the SBP (normotensive rats; time 10 min) was 120 mmHg and 102 mmHg and 124 mmHg and 139 mmHg and 136 mmHg and 113 mmHg, the “DBP Mean” value (normotensive rats; time 15 min) was 86.2 mmHg and the “SBP Mean” value (normotensive rats; time 15 min) was 123.3 mmHg. For the same compound, the DBP (normotensive rats; time 15 min) was 90 mmHg and 77 mmHg and 89 mmHg and 94 mmHg, the SBP (normotensive rats; time 15 min) was 120 mmHg and 103 mmHg and 137 mmHg and 138 mmHg and 131 mmHg and 111 mmHg and the “DBP Mean” value (normotensive rats; time 20 min) was 85.8 mmHg. For the same compound, the “SBP Mean” value (normotensive rats; time 20 min) was 121.8 mmHg, the DBP (normotensive rats; time 20 min) was 89 mmHg and 76 mmHg and 91 mmHg and 87 mmHg and 94 mmHg and the SBP (normotensive rats; time 20 min) was 118 mmHg and 100 mmHg and 138 mmHg and 139 mmHg and 128 mmHg and 109 mmHg. The “DBP Mean” value (normotensive rats; time 30 min) was 86.5 mmHg, the “SBP Mean” value (normotensive rats; time 30 min) was 124.2 mmHg and the DBP (normotensive rats; time 30 min) was 88 mmHg and 77 mmHg and 93 mmHg and 89 mmHg and 94 mmHg and 74 mmHg. For the same compound, the SBP (normotensive rats; time 30 min) was 119 mmHg and 101 mmHg and 136 mmHg and 139 mmHg and 128 mmHg and 108 mmHg, the “DBP Mean” value (normotensive rats; time 40 min) was 85.5 mmHg and the “SBP Mean” value (normotensive rats; time 40 min) was 122.0 mmHg. For the same compound, the DBP (normotensive rats; time 40 min) was 88 mmHg and 76 mmHg and 92 mmHg and 95 mmHg and 75 mmHg, the SBP (normotensive rats; time 40 min) was 122 mmHg and 106 mmHg and 134 mmHg and 136 mmHg and 128 mmHg and 108 mmHg and the “DBP Mean” value (normotensive rats; time 50 min) was 85.7 mmHg. The “SBP Mean” value (normotensive rats; time 50 min) was 122.3 mmHg, the DBP (normotensive rats; time 50 min) was 96 mmHg and 81 mmHg and 89 mmHg and 84 mmHg and 93 mmHg and 77 mmHg and the SBP (normotensive rats; time 50 min) was 134 mmHg and 110 mmHg and 130 mmHg and 135 mmHg and 125 mmHg. The “DBP Mean” value (normotensive rats; time 60 min) was 86.7 mmHg, the “SBP Mean” value (normotensive rats; time 60 min) was 124.0 mmHg and the DBP (normotensive rats; time 60 min) was 98 mmHg and 83 mmHg and 88 mmHg and 82 mmHg and 93 mmHg and 75 mmHg. The SBP (normotensive rats; time 60 min) was 135 mmHg and 112 mmHg and 129 mmHg and 126 mmHg and 108 mmHg, the “DBP Mean” value (normotensive rats; time 70 min) was 86.3 mmHg and the “SBP Mean” value (normotensive rats; time 70 min) was 123.7 mmHg. The DBP (normotensive rats; time 70 min) was 96 mmHg and 86 mmHg and 80 mmHg and 93 mmHg and 77 mmHg, the SBP (normotensive rats; time 70 min) was 134 mmHg and 115 mmHg and 127 mmHg and 128 mmHg and 125 mmHg and 113 mmHg and the “DBP Mean” value (normotensive rats; time 80 min) was 86.8 mmHg. The “SBP Mean” value (normotensive rats; time 80 min) was 124.5 mmHg, the DBP (normotensive rats; time 80 min) was 97 mmHg and 87 mmHg and 86 mmHg and 82 mmHg and 93 mmHg and 76 mmHg and the SBP (normotensive rats; time 80 min) was 134 mmHg and 115 mmHg and 126 mmHg and 131 mmHg and 125 mmHg and 116 mmHg. The “effect on liver, kidney and heart weight (% of total body weight)” value [1] was “neither AZ-853 (0.625 mg/kg) nor AZ-861 (1.25 mg/kg) influenced”, the “increase of plasma γ-GTP activity” value [2] was “did not change activity” and the “plasma ALAT activity vs. control” value [2] was “did not lead to significant changes in ALAT activity”. The “spontaneous activity after the 1st administration vs. control” value (mice; [4]) was “No effect on locomotor activity”, the “spontaneous activity after the 15th administration vs. control” value (mice; [4]) was “significant decrease in spontaneous activity” and the “Mean counts, spontaneous activity” value (mice; after 1st administration, 1 h after administration) was 223.1 counts. For the same compound, the “Mean counts, spontaneous activity” value (mice; after 1st administration, 2 h after administration) was 212.3 counts, the “Mean counts, spontaneous activity” value (mice; after 1st administration, 3 h after administration) was 190.0 counts and the “Mean counts, spontaneous activity” value (mice; after 1st administration, 4 h after administration) was 112.6 counts. The “Mean counts, spontaneous activity” value (mice; after 1st administration, 5 h after administration) was 125.9 counts, the “Mean counts, spontaneous activity” value (mice; after 1st administration, 6 h after administration) was 188.8 counts and the “Mean counts, spontaneous activity” value (mice; after 1st administration, 7 h after administration) was 229.5 counts. For the same compound, the “Mean counts, spontaneous activity” value (mice; after 1st administration, 8 h after administration) was 268.3 counts, the “Mean counts, spontaneous activity” value (mice; after 1st administration, 9 h after administration) was 274.6 counts and the “Mean counts, spontaneous activity” value (mice; after 1st administration, 10 h after administration) was 298.0 counts. The “Mean counts, spontaneous activity” value (mice; after 1st administration, 11 h after administration) was 311.6 counts, the “Mean counts, spontaneous activity” value (mice; after 1st administration, 12 h after administration) was 274.9 counts and the “Mean counts, spontaneous activity” value (mice; after 1st administration, 13 h after administration) was 290.8 counts. The “Mean counts, spontaneous activity” value (mice; after 1st administration, 14 h after administration) was 267.1 counts, the “Mean counts, spontaneous activity” value (mice; after 1st administration, 15 h after administration) was 232.3 counts and the “Mean counts, spontaneous activity” value (mice; after 1st administration, 16 h after administration) was 255.3 counts. The “Mean counts, spontaneous activity” value (mice; after 1st administration, 17 h after administration) was 318.8 counts, the “Mean counts, spontaneous activity” value (mice; after 1st administration, 18 h after administration) was 275.9 counts and the “Mean counts, spontaneous activity” value (mice; after 15th administration, 1 h after administration) was 228.5 counts. The “Mean counts, spontaneous activity” value (mice; after 15th administration, 2 h after administration) was 121.0 counts, the “Mean counts, spontaneous activity” value (mice; after 15th administration, 3 h after administration) was 91.6 counts and the “Mean counts, spontaneous activity” value (mice; after 15th administration, 4 h after administration) was 149.1 counts. The “Mean counts, spontaneous activity” value (mice; after 15th administration, 5 h after administration) was 154.4 counts, the “Mean counts, spontaneous activity” value (mice; after 15th administration, 6 h after administration) was 159.0 counts and the “Mean counts, spontaneous activity” value (mice; after 15th administration, 7 h after administration) was 185.0 counts. The “Mean counts, spontaneous activity” value (mice; after 15th administration, 8 h after administration) was 140.4 counts, the “Mean counts, spontaneous activity” value (mice; after 15th administration, 9 h after administration) was 144.0 counts and the “Mean counts, spontaneous activity” value (mice; after 15th administration, 10 h after administration) was 195.7 counts. For the same compound, the “Mean counts, spontaneous activity” value (mice; after 15th administration, 11 h after administration) was 177.3 counts, the “Mean counts, spontaneous activity” value (mice; after 15th administration, 12 h after administration) was 236.1 counts and the “Mean counts, spontaneous activity” value (mice; after 15th administration, 13 h after administration) was 169.1 counts. For the same compound, the “Mean counts, spontaneous activity” value (mice; after 15th administration, 14 h after administration) was 242.3 counts, the “Mean counts, spontaneous activity” value (mice; after 15th administration, 15 h after administration) was 172.6 counts and the “Mean counts, spontaneous activity” value (mice; after 15th administration, 16 h after administration) was 218.9 counts. For the same compound, the “Mean counts, spontaneous activity” value (mice; after 15th administration, 17 h after administration) was 210.1 counts, the “Mean counts, spontaneous activity” value (mice; after 15th administration, 18 h after administration) was 244.6 counts and the Ki [3] was 136 nM. The Kb (5-HT1AR) was 1.4 nM.

Source: article PMC7413516, “Antidepressant-like activity and safety profile evaluation of 1H-imidazo[2,1-f]purine-2,4(3H,8H)-dione derivatives as 5-HT1A receptor partial agonists” (PLoS ONE, 2020)
